Laboratory results published in PMC11584656, “Viral sequence determines HLA-E-restricted T cell recognition of hepatitis B surface antigen” (Nature Communications, 2024).
Read-outs that look alike come from different tables or passages of the source.

Columns and labels:
[1] = target: recombinant human HLA-E*01:03 (heavy chain with β2m), soluble, refolded; assay: SPR
[2] = target: recombinant human HLA-E*01:03 (heavy chain with β2m), soluble, refolded; assay: thermal shift assay (refolded pHLA-E*01:03 complexes); Tm of the same pHLA-E*01:03 complexes as in the SPR stability assay (Fig. 1c); triplicate
[3] = test system: THP-1-E cells (HLA-E*01:01) pulsed with peptide; assay: IFN-γ ELISpot cross-reactivity screen with HLA-E binding peptides; format: cell-based, human; conditions: 1 nM ImmTAV, THP-1-E cells pulsed with 10 μg/mL peptide, average of 2 HBV-naïve donor PBMC each in triplicate
[4] = test system: THP-1-E cells (HLA-E*01:03) pulsed with peptide; assay: as above; format: cell-based, human; conditions: 1 nM ImmTAV, THP-1-E cells pulsed with 10 μg/mL peptide, average of 2 HBV-naïve donor PBMC each in triplicate
HLA-E*01:03 [5] = target: T1, HLA-E*01:03 (Homo sapiens, UniProt P13747); format: binding; conditions: for Tm (°C): Figure 1a source data, 60:1 peptide excess; for Thermal stability Tm (°C): SYPRO Orange, 22-95 °C at 1 °C/min, mean ± SD of triplicates, SD
[6] = target: single chain β2m-HLA-E*01:01 on transduced cells
[7] = target: single chain β2m-HLA-E*01:03 on transduced cells
[8] = target: recombinant human HLA-E*01:03 (heavy chain with β2m), soluble, refolded; assay: thermal shift assay (peptide screen)
[9] = test system: K562 cells transduced with single chain β2m-HLA-E*01:01; assay: K562 cell pulsing assay, HLA-E surface upregulation (3D12, flow cytometry); format: cell-based, human
[10] = test system: K562 cells transduced with single chain β2m-HLA-E*01:03; assay: as above; format: cell-based, human
HLA-E*01:03 [11] = target: T1, HLA-E*01:03; format: binding; design: made in house; conditions: refolded complexes
HLA-E*01:03 [12] = target: T1, HLA-E*01:03; assay: pHLA-E stability (t1/2) by SPR monitoring ILT2 binding; design: made in house; conditions: SPR 25 °C

A1 signal peptide gave a t1/2 of the peptide-HLA-E complex [1] of 2 h and a Tm of the peptide-HLA-E complex [2] of 49 °C.
ALSWRLPLL [Mimetic peptide 1] was tested, and the “HLA-E*01:01 INF-γ release (SFU ± SD)” value [3] was 61.6±21.8 SFU and the “HLA-E*01:03 INF-γ release (SFU ± SD)” value [4] was 54.1±15.6 SFU.
For CIPIPSSWAF [HBV Env peptide 312-321], the “Tm (°C)” value (HLA-E*01:03 [5]; replicate 1) was 42.2 °C, the “Tm (°C)” value (HLA-E*01:03 [5]; replicate 2) was 41.7 °C and the “Tm (°C)” value (HLA-E*01:03 [5]; replicate 3) was 42.2 °C. The “Thermal stability Tm (°C)” value (HLA-E*01:03 [5]) was 42.1±0.3 °C.
Cw3 signal peptide showed a t1/2 of the peptide-HLA-E complex [1] of 2 h and a Tm of the peptide-HLA-E complex [2] of 49 °C.
With FIIFLFILL [HBV Env peptide 243-251] the “Tm (°C)” value (HLA-E*01:03 [5]; replicate 1) was 38.9 °C, the “Tm (°C)” value (HLA-E*01:03 [5]; replicate 2) was 39.2 °C and the “Tm (°C)” value (HLA-E*01:03 [5]; replicate 3) was 39.5 °C. For the same substance, the “Thermal stability Tm (°C)” value (HLA-E*01:03 [5]) was 39.3±0.3 °C.
In the case of GMLPVCPLL [HBV Env peptide 265-273], the “Tm (°C)” value (HLA-E*01:03 [5]; replicate 1) is reported as 45.1 °C, the “Tm (°C)” value (HLA-E*01:03 [5]; replicate 2) is reported as 45.1 °C and the “Tm (°C)” value (HLA-E*01:03 [5]; replicate 3) is reported as 45.5 °C. For the same substance, the “Thermal stability Tm (°C)” value (HLA-E*01:03 [5]) was 45.3±0.3 °C.
With HBV Env_(371-379) (S3N) peptide … the peptide concentration at which IFN-γ responses (ELISPOT) were detected: peptide titrated on THP-1-E*01:01 cells, PBMC, 1 nM a09b08 ImmTAV [6] was 4.9 µg/mL, the peptide concentration at which IFN-γ responses (ELISPOT) were detected: peptide titrated on THP-1-E*01:03 cells, PBMC, 1 nM a09b08 ImmTAV [7] was 0.2 µg/mL and the t1/2 of the peptide-HLA-E complex [1] was 0.658 h. It also gave a Tm of the peptide-HLA-E complex [2] of 47 °C.
With HBV Env_(371-379) peptide … the peptide concentration at which IFN-γ responses (ELISPOT) were detected: peptide titrated on THP-1-E*01:03 cells, PBMC, 1 nM a09b08 ImmTAV [7] was 8.7 µg/mL, the t1/2 of the peptide-HLA-E complex [1] was 0.112 h and the Tm of the peptide-HLA-E complex [8] was 47.1 °C. For the same substance, the Tm of the peptide-HLA-E complex [2] was 44 °C.
With ILPSDAPVL [MTB MmmpL875-83] the “HLA-E*01:01 INF-γ release (SFU ± SD)” value [3] was 52.6±17.39 SFU and the “HLA-E*01:03 INF-γ release (SFU ± SD)” value [4] was 54.8±17.4 SFU.
With ILQRFLPLI [Mimetic peptide 2] the “HLA-E*01:01 INF-γ release (SFU ± SD)” value [3] was 60.5±20.8 SFU and the “HLA-E*01:03 INF-γ release (SFU ± SD)” value [4] was 48.6±29.1 SFU.
In the case of IMAPRTLVL [Leader A34], the “HLA-E*01:01 INF-γ release (SFU ± SD)” value [3] is reported as 55.5±6.8 SFU and the “HLA-E*01:03 INF-γ release (SFU ± SD)” value [4] is reported as 54.5±18.9 SFU.
For LLPRRGPRL [HCV Core], the “HLA-E*01:01 INF-γ release (SFU ± SD)” value [3] was 61.1±21.8 SFU and the “HLA-E*01:03 INF-γ release (SFU ± SD)” value [4] was 60±30.1 SFU.
With QMRPVSRVL [Hsp60 signal peptide] the “HLA-E*01:01 INF-γ release (SFU ± SD)” value [3] was 43.8±6.36 SFU and the “HLA-E*01:03 INF-γ release (SFU ± SD)” value [4] was 41.8±9.9 SFU.
For RLPAKAPLL [Mtb RLPA], the “cell surface HLA-E expression after peptide pulsing” value [9] was “increased cell surface HLA-E expression”, the “cell surface HLA-E expression after peptide pulsing” value [10] was “increased cell surface HLA-E expression” and the “HLA-E*01:01 INF-γ release (SFU ± SD)” value [3] was 67.1±12.6 SFU. The “HLA-E*01:03 INF-γ release (SFU ± SD)” value [4] was 72.1±12.8 SFU.
RWMCLRRFI [HBV Env peptide 236-244] was tested, and the “Tm (°C)” value (HLA-E*01:03 [5]; replicate 1) was 37.9 °C, the “Tm (°C)” value (HLA-E*01:03 [5]; replicate 2) was 37.9 °C and the “Tm (°C)” value (HLA-E*01:03 [5]; replicate 3) was 38.4 °C. The “Thermal stability Tm (°C)” value (HLA-E*01:03 [5]) was 38.2±0.3 °C.
SSWAFARFL [HBV Env peptide 317-325] was tested, and the “Tm (°C)” value (HLA-E*01:03 [5]; replicate 1) was 40.7 °C, the “Tm (°C)” value (HLA-E*01:03 [5]; replicate 2) was 40.6 °C and the “Tm (°C)” value (HLA-E*01:03 [5]; replicate 3) was 40.7 °C. The “Thermal stability Tm (°C)” value (HLA-E*01:03 [5]) was 40.7±0.1 °C.
For VMAPQALLL [Leader Cw16], the “HLA-E*01:01 INF-γ release (SFU ± SD)” value [3] was 33.3±16.4 SFU and the “HLA-E*01:03 INF-γ release (SFU ± SD)” value [4] was 49.1±19.2 SFU.
In the case of VMAPRALLL [Leader Cw7], the “HLA-E*01:01 INF-γ release (SFU ± SD)” value [3] is reported as 30.3±12.9 SFU and the “HLA-E*01:03 INF-γ release (SFU ± SD)” value [4] is reported as 44.1±22.1 SFU.
With VMAPRTLFL [Leader G] the “HLA-E*01:01 INF-γ release (SFU ± SD)” value [3] was 44.8±19.8 SFU and the “HLA-E*01:03 INF-γ release (SFU ± SD)” value [4] was 48.1±19.7 SFU.
In the case of VMAPRTLLL [Leader A1], the “HLA-E*01:01 INF-γ release (SFU ± SD)” value [3] is reported as 67.8±14.9 SFU, the “HLA-E*01:03 INF-γ release (SFU ± SD)” value [4] is reported as 65.6±28.4 SFU and the “pHLA-E*01:03 Tm” value (HLA-E*01:03 [11]; thermal shift assay, mean ± SD of triplicates) is reported as 49 °C. For the same substance, the “pHLA-E*01:03 (Tm °C)” value (HLA-E*01:03 [11]; first well of three) was 49.62 °C, the “pHLA-E*01:03 (Tm °C)” value (HLA-E*01:03 [11]; second well of three) was 48.27 °C and the “pHLA-E*01:03 (Tm °C)” value (HLA-E*01:03 [11]; third well of three) was 48.53 °C. For the same substance, the “pHLA-E*01:03 (t1/2 min)” value (HLA-E*01:03 [12]; Run 1) was 105 min, the “pHLA-E*01:03 (t1/2 min)” value (HLA-E*01:03 [12]; Run 2) was 125 min and the “pHLA-E*01:03 (t1/2 min)” value (HLA-E*01:03 [12]; Run 3) was 127 min. For the same substance, the “pHLA-E*01:03 t1/2” value (HLA-E*01:03 [12]; rounded value) was 2 h.
VMAPRTLVL [Leader A2] was tested, and the “HLA-E*01:01 INF-γ release (SFU ± SD)” value [3] was 50.5±6.8 SFU and the “HLA-E*01:03 INF-γ release (SFU ± SD)” value [4] was 64.5±9.8 SFU.
With VMAPRTVLL [Leader B7] the “HLA-E*01:01 INF-γ release (SFU ± SD)” value [3] was 43.3±7.8 SFU and the “HLA-E*01:03 INF-γ release (SFU ± SD)” value [4] was 48.7±7.3 SFU.
VMPPRTLLL [Leader A80] was tested, and the “HLA-E*01:01 INF-γ release (SFU ± SD)” value [3] was 44.8±8.6 SFU and the “HLA-E*01:03 INF-γ release (SFU ± SD)” value [4] was 61.1±14.3 SFU.
VTAPRTLLL [Leader B13] was tested, and the “HLA-E*01:01 INF-γ release (SFU ± SD)” value [3] was 53±13.4 SFU and the “HLA-E*01:03 INF-γ release (SFU ± SD)” value [4] was 56±17.9 SFU.
In the case of VTAPRTVLL [Leader B15], the “HLA-E*01:01 INF-γ release (SFU ± SD)” value [3] is reported as 42.8±13.4 SFU and the “HLA-E*01:03 INF-γ release (SFU ± SD)” value [4] is reported as 40±17.4 SFU.
